From US12139488B2, “Pyrido[3,2-d]pyrimidine compounds uses thereof for treating a proliferative disease” (Universite de Montreal, priority 2021, dated 2024) come the findings set out here.

What all share (assay type): cell-based, human
Experiment [1] relates to pERK in Lovo cells (KRAS-G13D). As to the kind of experiment: Phospho-ERK inhibition (AlphaLISA), Lovo. The conditions noted are these: for Lovo pERK % Ymin: value in parentheses. As to the method: (§1) All cancer cell lines (A375, A101D, A2058, RKO, HT29 SK-MEL 30, IPC298, HepG2, HCT-116, Lovo, SWV620, SW480, NCI-H358, NCI-H2122, Calu-6, NCIH2087, NCIH1755, NCIH1666 and Mewo) were obtained from ATCC and cultured in RPMI-1640 medium (Gibco) supplemented with 5% heat inactivated fetal bovine serum (FBS, Wisent) at 37° C. under 5% CO2. Cells were maintained in T175 flasks (Greiner). They were passaged by removing the culture medium, washing once in 10 mL of room temperature Phosphate Buffered Saline (PBS; Wisent) and incubating at 37° C. with 2 mL of 0.05% Trypsin (Thermo-Fisher). Trypsin was then inactivated by adding complete growth medium and the cells were then replated in a T175 culture dish at the appropriate dilution. All cell lines were routinely tested for mycoplasma contamination. Tissue type and mutational status of each cell line can be found in Table B.
(§2) AlphaLISA® SureFire® Ultra™ p-ERK 1/2 (Thr202/Tyr204) analysis was conducted on cells plated in 100 μL of complete RPMI-1640 growth medium in 96-well flat-bottomed transparent dishes (Costar) at a density indicated in Table C. Cells were maintained overnight at 37° C. under 5% CO2 before treatment with compounds' dilution series for one hour. The cell density in cells/cm^2 corresponds to cell number divided by the area of one well of a 96-well plate ([…]).
(§3) In a dilution series 100 μL/well of test substance dilution prepared in complete RPMI-1640 growth media was added to the cells. The dilution series is selected so that ten concentrations cover a range from 10 μM to 0.33 nM. If necessary the initial concentration of 10 μM is increased to 100 μM or lowered to 1 μM (as in the case of A375 and H1666 cells, which are generally more sensitive to the compounds) and further dilution is carried out accordingly. The final concentration of DMSO in the assay is set at 0.5%.
(§4) After treatment, media was removed and cells were lysed in 50 μL of 1× AlphaScreen Ultra Lysis Buffer (Perkin Elmer). The AlphaLISA® SureFire® Ultra™ p-ERK 1/2 (Thr202/Tyr2O4) (PerkinElmer) reactions were performed with 5 μL of cell lysate according to the manufacturer's specifications in 384-well proxyplates (Perkin Elmer) followed by overnight incubation of the reactions at room temperature in a humidified chamber. After completion of the reactions, the signals were recorded on an EnVision plate reader (Perkin Elmer) using built in AlphaLISA® settings.
(§5) The effect of each compound dilution on the pERK signal was expressed in % inhibition and calculated as follows. An internal 100% inhibition control ([…] trametinib, cat #HY-10999; MedChem Express; CAS #871700-17-3) was included in each plate and used as a measure of pERK background. First, the value obtained for trametinib was subtracted from each data point. The average of DMSO (vehicle) controls (set as 0% inhibition) was established and used to calculate % inhibition: % inhibition=100*(1-((pERK signalcompound)/(pERK signalDMSO)))
(§6) The ability of each compound to inhibit pERK signal was expressed as an IC50 value obtained by plotting the inhibition values for each data point of a dilution series and fitting the obtained curves using a log(agonist) versus response-variable slope (four parameters) function using GraphPadPrism (V7.0) or Dotmatics Screening Ultra platform.
(§7) When present, paradoxical pERK induction is inferred from the negative % inhibition values observed in the pERK IC50 curves of a compound.
In general terms: Bead proximity is the source of the signal in Alpha formats.

The subject of a further experiment is HepG2 cells (NRAS-Q61L). Kind of experiment: Proliferation inhibition (CellTiter-Glo), HepG2. The conditions noted are these: HepG2, 3 days, read-out: HepG2 Prolif. EC50. As to the method: as §1
(§8) CellTiter-Glo® viability analysis was conducted on cells plated in 100 μL of complete RPMI-1640 growth medium in 96-well flat-bottomed white opaque plates (Greiner or Croning) at a density indicated in Table E (for each CCL, number of cells plated per well of a 96-well plate to perform the CellTiter-Glo® cell viability assay). The cell density in cells/cm^2 would correspond to cell number divided by the area of one well of a 96-well plate (0.32 cm^2). […]
(§9) After 3 days of incubation, the growth media were removed by aspiration and 60 μL of diluted CellTiter-Glo® reagent (10 μL CellTiter-Glo® reagent+50 μL of PBS) was added to each well. […] Luminescence signals were then acquired on a Synergy Neo2 plate reader (Biotek).
(§10) The effect of each compound dilution on the proliferation of cancer cell lines was expressed in % inhibition and calculated as follows. […]
(§11) The ability of each compound to inhibit proliferation was expressed as a EC50 value obtained by plotting the effect values for each data point of a dilution series and fitting the obtained curves using a log(agonist) versus response-variable slope (four parameters) function using GraphPadPrism (V7.0) or Dotmatics Screening Ultra platform.
(ATP-based viability assays read luminescence as a measure of living cells.)

The subject of the next experiment is SW620 cells (KRAS-G12V). Kind of experiment: Proliferation inhibition (CellTiter-Glo), SW620. Particulars: SW620, 3 days, read-out: SW620 Prolif. EC50. As to the method:
as §1, §8, §9, §10, §11

For experiment [2], the system named is pERK in NCI-H2122 cells (KRAS-G12C). As to the kind of experiment: Phospho-ERK inhibition (AlphaLISA), NCI-H2122. Particulars: for IC50: NCI-H2122; for NCI-H2122 pERK % Ymin: NCI-H2122, value in parentheses. As to the method:
as §1, §2, §3, §4, §5, §6, §7

Another experiment concerns RKO cells (BRAF V600E). As to the kind of experiment: Proliferation inhibition (CellTiter-Glo), RKO. Particulars: 3 days, read-out: RKO Prolif. EC50. As to the method: as §1, §8, §9, §10, §11
In experiment [3] the test system is HCT-116 cells (KRAS G13D). Kind of experiment: Proliferation inhibition (CellTiter-Glo), HCT116. The conditions noted are these: HCT116, 3 days, read-out: HCT116 Prolif. EC50. As for the experimental part:
as §1, §8, §9, §10, §11

SMILES strings stand for the structures. Read-outs that look alike come from different tables or passages of the source.

The IC50 is the concentration that inhibits the measured activity by half. The low end stands for greater potency in that assay, the high end for weaker potency in that assay. For orientation: EC50 means the concentration giving half of the maximal effect. As to `CC1(O)CCN(c2cccc3c2ncn3-c2ccc3ncnc(Nc4c(F)ccc(NS(=O)(=O)c5cccc(Cl)c5Cl)c4F)c3n2)CC1` [Example 524], the IC50 in experiment [1] (Lovo) and in experiment [2] was 30 to 300 nM in each case. The “Lovo pERK % Ymin” value in experiment [1] (Lovo) was −5%. Further, the half-maximal effective concentration (EC50) in the experiment with HepG2 cells (NRAS-Q61L) was under 30 nM; in the experiment on SW620 cells (KRAS-G12V), 300 to 3000 nM; in the experiment on RKO cells (BRAF V600E), under 30 nM; in experiment [3], 300 to 3000 nM. For the same compound, the “NCI-H2122 pERK % Ymin” value in experiment [2] is given as 13%.
As to `Nc1cccc2c1ncn2-c1ccc2ncnc(Nc3c(F)ccc(NS(=O)(=O)c4cccc(Cl)c4Cl)c3F)c2n1` [Example 99], the IC50 in experiment [1] (Lovo) and in experiment [2] was 30 to 300 nM throughout. In addition, in experiment [1] (Lovo), the “Lovo pERK % Ymin” value is recorded as −15%. Also, the EC50 in the experiment on HepG2 cells (NRAS-Q61L) was under 30 nM; with SW620 cells (KRAS-G12V), 300 to 3000 nM; in the experiment with RKO cells (BRAF V600E), under 30 nM; in experiment [3], 300 to 3000 nM. For the same compound, in experiment [2], the “NCI-H2122 pERK % Ymin” value is −3%.
Turning to `Cc1ccc2c(Nc3cccc(Cl)c3F)nccc2c1NC(=O)c1csc2c(N)ncnc12` [Belvarafenib, reference compound], the half-maximal inhibitory concentration (IC50) is under 30 nM in experiment [1] (Homo sapiens, LoVo) and 30 to 300 nM in experiment [2] (Homo sapiens). In experiment [1] (Lovo), the “Lovo pERK % Ymin” value was −12%. Moreover, the EC50 with HepG2 cells (NRAS-Q61L) (Homo sapiens, 72 h) was under 30 nM; with SW620 cells (KRAS-G12V) (Homo sapiens, SW-620, 72 h), 300 to 3000 nM; in the experiment on RKO cells (BRAF V600E) (Homo sapiens, 72 h), under 30 nM; in experiment [3] (Homo sapiens, HCT-116, 72 h) it was 300 to 3000 nM. In addition, the “NCI-H2122 pERK % Ymin” value in experiment [2] is −9%.
